Read-outs that look alike come from different tables or passages of the source.

This assay relates to Italian ryegrass (Lolium multiflorum). Briefly: (16) Herbicidal effect test (comparative test), pot, spray at 2.5 to 3.0 leaf stage. In kind it is in vivo. Particulars: Lolium multiflorum, read-out: Growth inhibition rate (%) Measured value. The source says: [formula] • X: growth inhibition rate when treated with α (g/ha) of compound A, • Y: growth inhibition rate when treated with β (g/ha) of compound B, • E: growth inhibition rate expected when treated with α (g/ha) of compound A and β (g/ha) of compound B (expected value).
Upland soil was put in a 1/1,000,000 hectare pot, and seeds of Italian ryegrass (Lolium multiflorum) were sown. When Italian ryegrass reached 2.5 to 3.0 leaf stage, a water-based suspension containing tiafenacil as the active ingredient, prepared by a conventional method for preparing a water-based suspension, a water-based suspension containing saflufenacil as the active ingredient (tradename: Sharpen, manufactured by BASF), a wettable powder containing fomesafen as the active ingredient, prepared by a conventional method for preparing a wettable powder, an emulsifiable concentrate containing fluthiacet-methyl as the active ingredient (tradename: Attackshot emulsifiable concentrate, manufactured by MARUWA Biochemical Co., Ltd.), a dry flowable containing carfentrazone-ethyl as the active ingredient (tradename: Task DF, manufactured by ISHIHARA SANGYO KAISHA, LTD.) or a water-based suspension containing pyraflufen-ethyl as the active ingredient (tradename: ECOPART flowable, manufactured by NIHON NOHYAKU CO., LTD.), and an emulsifiable concentrate containing S-metolachlor as the active ingredient (tradename: Dual Gold, manufactured by Syngenta) or a wettable powder containing metribuzin as the active ingredient (tradename: SENCOR wettable powder, manufactured by Bayer Crop Science), were diluted with water (in an amount corresponding to 200 liter per hectare) containing 0.5 vol % of an agricultural spreader (tradename: Destiny HC, manufactured by Winfield Solutions, LLC.) and sprayed by a small spray gun (model: W-101-132G, manufactured by ANEST IWATA Corporation). On the 4th day after spraying, the state of growth of the Italian ryegrass was visually observed, and the growth inhibition rate (%) was obtained in accordance with the evaluation standards described in the above (1) herbicidal effect test, and the results are shown in Table 16. Further, the expected value of the growth inhibition rate (%) was calculated in accordance with the Colby's formula described in the above (1) herbicidal effect test, and the results are also shown in Table 16.

[1] abbreviates: Dose 12.5 g/ha, 4th day after spraying.

In general, inhibition refers to the share of the control response that was lost under treatment. Regarding `CCOC(=O)C(Cl)Cc1cc(-n2nc(C)n(C(F)F)c2=O)c(F)cc1Cl` (centres unmarked) [carfentrazone-ethyl], the inhibition at 12.5 g/ha came to 12%.
In the case of `COC(=O)CSc1cc(/N=c2\sc(=O)n3n2CCCC3)c(F)cc1Cl` [fluthiacet-methyl], the inhibition at 12.5 g/ha under setting [1] stood at 12%.
In the case of `CS(=O)(=O)NC(=O)c1cc(Oc2ccc(C(F)(F)F)cc2Cl)ccc1[N+](=O)[O-]` [fomesafen], under setting [1], the inhibition at 12.5 g/ha worked out at 8%.
Regarding `CCOC(=O)COc1cc(-c2nn(C)c(OC(F)F)c2Cl)c(F)cc1Cl` [pyraflufen-ethyl], the inhibition at 12.5 g/ha came out at 25%.
As for `CC(C)N(C)S(=O)(=O)NC(=O)c1cc(-n2c(=O)cc(C(F)(F)F)n(C)c2=O)c(F)cc1Cl` [saflufenacil], the inhibition at 12.5 g/ha under setting [1] came to 33%.

These data come from patent publication US20250380696A1, “METHOD FOR CONTROLLING UNDESIRED PLANTS AND PROMOTING GROWTH OF USEFUL PLANTS” (ISHIHARA SANGYO KAISHA, LTD., priority 2022, published 2025).
